Experimental data: PubChem BioAssay AID1963981 (Molecular Pharmacology Branch, DTP, NCI, 2024)
Each block holds one compound with its values, some of them ahead of it.

Tested on: 354836-022-R-J1-PDC multicell spheroid viability
Test: Anticancer human tumor 354836-022-R-J1-PDC patient-derived head and neck squamous cell carcinoma cell line growth inhibition [PI3K]
Details: for viability, T/C: stronger effect = lower value
Summary of the method: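 We assembled tumor spheroids that included a stromal compartment of HUVEC and MSCs, then exposed them to targeted agents alone and together with PI3K pathway inhibitors. Concentration series descended by half-log from clinically achievable Cmax levels. Viability served as the endpoint.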
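Note: spheroids exposed to agents for seven days before the viability read.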

IC50 (curve of compound): < 0.0316 µM
SMILES: CC1(C)CCC(Nc2ncc(C(F)(F)F)c(-c3c[nH]c4c(P(C)(C)=O)c(C#N)ccc34)n2)CN1 (centres undefined)
viability, T/C (compound 0.0316 µM): 21.9% [middle of 4 runs] | viability, T/C (compound 0.1 µM): 19.9% [middle of 4 runs] | viability, T/C (compound 0.316 µM): 20.8% [middle of 4 runs] | viability, T/C (compound 1 µM): 21.9% [middle of 4 runs] | viability, T/C (compound 3.16 µM): 32% [middle of 4 runs] | viability, T/C (compound 10 µM): 2.79% [middle of 4 runs]

IC50 (curve of first compound, second compound 0.0316 µM): > 10 µM | IC50 (curve of first compound, second compound 0.1 µM): > 10 µM | IC50 (curve of first compound, second compound 0.316 µM): > 10 µM | IC50 (curve of first compound, second compound 1 µM): > 10 µM | IC50 (curve of first compound, second compound 3.16 µM): > 10 µM | IC50 (curve of first compound, second compound 10 µM): < 0.0316 µM
SMILES: Cn1nccc1Nc1nccc(-c2ccn(C(CO)c3ccc(Cl)c(F)c3)c(=O)c2)n1 (centres undefined) + Cc1nc(NC(=O)N2CCCC2C(N)=O)sc1-c1ccnc(C(C)(C)C(F)(F)F)c1
viability, T/C (second compound 0.0316 µM, first compound 0.0316 µM): 100% | viability, T/C (second compound 0.0316 µM, first compound 0.1 µM): 91% | viability, T/C (second compound 0.0316 µM, first compound 0.316 µM): 101% | viability, T/C (second compound 0.0316 µM, first compound 1 µM): 92.5% | viability, T/C (second compound 0.0316 µM, first compound 3.16 µM): 97.2% | viability, T/C (second compound 0.0316 µM, first compound 10 µM): 95.1% | viability, T/C (second compound 0.1 µM, first compound 0.0316 µM): 99.2% | viability, T/C (second compound 0.1 µM, first compound 0.1 µM): 92.5% | viability, T/C (second compound 0.1 µM, first compound 0.316 µM): 102% | viability, T/C (second compound 0.1 µM, first compound 1 µM): 88.7% | viability, T/C (second compound 0.1 µM, first compound 3.16 µM): 101% | viability, T/C (second compound 0.1 µM, first compound 10 µM): 91.3% | viability, T/C (second compound 0.316 µM, first compound 0.0316 µM): 95% | viability, T/C (second compound 0.316 µM, first compound 0.1 µM): 91.3% | viability, T/C (second compound 0.316 µM, first compound 0.316 µM): 87.7% | viability, T/C (second compound 0.316 µM, first compound 1 µM): 89.3% | viability, T/C (second compound 0.316 µM, first compound 3.16 µM): 108% | viability, T/C (second compound 0.316 µM, first compound 10 µM): 101% | viability, T/C (second compound 1 µM, first compound 0.0316 µM): 76.2% | viability, T/C (second compound 1 µM, first compound 0.1 µM): 89.7% | viability, T/C (second compound 1 µM, first compound 0.316 µM): 77.9% | viability, T/C (second compound 1 µM, first compound 1 µM): 79.1% | viability, T/C (second compound 1 µM, first compound 3.16 µM): 100% | viability, T/C (second compound 1 µM, first compound 10 µM): 90.3% | viability, T/C (second compound 3.16 µM, first compound 0.0316 µM): 58.4% | viability, T/C (second compound 3.16 µM, first compound 0.1 µM): 67.5% | viability, T/C (second compound 3.16 µM, first compound 0.316 µM): 61.9% | viability, T/C (second compound 3.16 µM, first compound 1 µM): 61.8% | viability, T/C (second compound 3.16 µM, first compound 3.16 µM): 72.4% | viability, T/C (second compound 3.16 µM, first compound 10 µM): 50.1% | viability, T/C (second compound 10 µM, first compound 0.0316 µM): 35.6% | viability, T/C (second compound 10 µM, first compound 0.1 µM): 41.5% | viability, T/C (second compound 10 µM, first compound 0.316 µM): 31.4% | viability, T/C (second compound 10 µM, first compound 1 µM): 33.7% | viability, T/C (second compound 10 µM, first compound 3.16 µM): 25.8% | viability, T/C (second compound 10 µM, first compound 10 µM): 14.7%
